Experimental data published in patent publication US12077503B2, “Substituted cyclic amides and their use as herbicides” (FMC CORPORATION, priority 2015, dated 2024).

Key:
Format in all cases: in vivo
[1] = tested on: barnyardgrass (Echinochloa crus-galli); assay: Test G Pre-Emergence Protocol; details: Echinochloa crus-galli, pre-emergence, 312 h, evaluated after 13 days; for pest or weed control at 15.625 g/ha: 15.625 g ai/ha; for pest or weed control at 15.625 g/ha / pest or weed control at 250 g/ha: read-out: Barnyardgrass damage rating (100=total damage to plant; 0=no damage to plant); for pest or weed control at 62.5 g/ha: 62.5 g ai/ha, 100=total damage to plant, 0=no damage to plant, read-out: Barnyardgrass damage rating; for pest or weed control at 250 g/ha: 250 g ai/ha
How it was run: (§1)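 Visual injury (0–100) at day 13 after a single pre-emergence spray. Rates: 15.625, 62.5, 250 g/ha in acetone–water 50:50 with 0.5% Tween 20. Growth conditions: 24/16° C, 14 h light, 65% humidity.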

corn (Zea mays) [2] = assay: Test G Pre-Emergence Protocol; details: Zea mays, pre-emergence, 312 h, evaluated after 13 days; for plant injury at 15.625 g/ha: 15.625 g ai/ha; for plant injury at 15.625 g/ha / plant injury at 250 g/ha: read-out: Corn damage rating (100=total damage to plant; 0=no damage to plant); for plant injury at 62.5 g/ha: 62.5 g ai/ha, 100=total damage to plant, 0=no damage to plant, read-out: Corn damage rating; for plant injury at 250 g/ha: 250 g ai/ha
How it was run: as §1

[3] = tested on: giant foxtail (Setaria faberi); assay: Test G Pre-Emergence Protocol; details: Setaria faberi, pre-emergence, 312 h, evaluated after 13 days; for pest or weed control at 15.625 g/ha: 15.625 g ai/ha; for pest or weed control at 15.625 g/ha / pest or weed control at 250 g/ha: read-out: Foxtail, Giant damage rating (100=total damage to plant; 0=no damage to plant); for pest or weed control at 62.5 g/ha: 62.5 g ai/ha, 100=total damage to plant, 0=no damage to plant, read-out: Foxtail, Giant damage rating; for pest or weed control at 250 g/ha: 250 g ai/ha
How it was run: as §1

[4] = tested on: ivy-leaved morning glory (Ipomoea hederacea); assay: Test G Pre-Emergence Protocol; details: Ipomoea, pre-emergence, 312 h, evaluated after 13 days; for pest or weed control at 15.625 g/ha: 15.625 g ai/ha; for pest or weed control at 15.625 g/ha / pest or weed control at 250 g/ha: read-out: Morningglory, Ivy-leaved damage rating (100=total damage to plant; 0=no damage to plant); for pest or weed control at 62.5 g/ha: 62.5 g ai/ha, 100=total damage to plant, 0=no damage to plant, read-out: Morningglory, Ivy-leaved damage rating; for pest or weed control at 250 g/ha: 250 g ai/ha
How it was run: as §1

[5] = tested on: redroot pigweed (Amaranthus retroflexus); assay: Test G Pre-Emergence Protocol; details: Amaranthus retroflexus, pre-emergence, 312 h, evaluated after 13 days; for pest or weed control at 15.625 g/ha: 15.625 g ai/ha; for pest or weed control at 15.625 g/ha / pest or weed control at 250 g/ha: read-out: Pigweed, Redroot damage rating (100=total damage to plant; 0=no damage to plant); for pest or weed control at 62.5 g/ha: 62.5 g ai/ha, 100=total damage to plant, 0=no damage to plant, read-out: Pigweed, Redroot damage rating; for pest or weed control at 250 g/ha: 250 g ai/ha
How it was run: as §1

[6] = tested on: velvetleaf (Abutilon theophrasti); assay: Test G Pre-Emergence Protocol; details: Abutilon theophrasti, pre-emergence, 312 h, evaluated after 13 days; for pest or weed control at 15.625 g/ha: 15.625 g ai/ha; for pest or weed control at 15.625 g/ha / pest or weed control at 250 g/ha: read-out: Velvetleaf damage rating (100=total damage to plant; 0=no damage to plant); for pest or weed control at 62.5 g/ha: 62.5 g ai/ha, 100=total damage to plant, 0=no damage to plant, read-out: Velvetleaf damage rating; for pest or weed control at 250 g/ha: 250 g ai/ha
How it was run: as §1

[7] = tested on: barnyardgrass (Echinochloa crus-galli); assay: Test G Post-Emergence Protocol; details: Echinochloa crus-galli, post-emergence, 312 h, read-out: Barnyardgrass damage rating; for pest or weed control at 15.625 g/ha: 15.625 g ai/ha, evaluated after 13 days (100=total damage to plant; 0=no damage to plant); for pest or weed control at 62.5 g/ha: 62.5 g ai/ha; for pest or weed control at 62.5 g/ha / pest or weed control at 250 g/ha: evaluated after 13 days, 100=total damage to plant, 0=no damage to plant; for pest or weed control at 250 g/ha: 250 g ai/ha
How it was run: (§2)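 A glasshouse post-emergence test: 8-day-old plants sprayed at 15.625, 62.5 or 250 g/ha, then grown at 24/16 °C day/night with 14 h light and 65% humidity. Damage rated 13 days later, 0–100.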

corn (Zea mays) [8] = assay: Test G Post-Emergence Protocol; details: Zea mays, post-emergence, 312 h, read-out: Corn damage rating; for plant injury at 15.625 g/ha: 15.625 g ai/ha, evaluated after 13 days (100=total damage to plant; 0=no damage to plant); for plant injury at 62.5 g/ha: 62.5 g ai/ha; for plant injury at 62.5 g/ha / plant injury at 250 g/ha: evaluated after 13 days, 100=total damage to plant, 0=no damage to plant; for plant injury at 250 g/ha: 250 g ai/ha
How it was run: as §2

[9] = tested on: giant foxtail (Setaria faberi); assay: Test G Post-Emergence Protocol; details: Setaria faberi, post-emergence, 312 h, read-out: Foxtail, Giant damage rating; for pest or weed control at 15.625 g/ha: 15.625 g ai/ha, evaluated after 13 days (100=total damage to plant; 0=no damage to plant); for pest or weed control at 62.5 g/ha: 62.5 g ai/ha; for pest or weed control at 62.5 g/ha / pest or weed control at 250 g/ha: evaluated after 13 days, 100=total damage to plant, 0=no damage to plant; for pest or weed control at 250 g/ha: 250 g ai/ha
How it was run: as §2

[10] = tested on: ivy-leaved morning glory (Ipomoea hederacea); assay: Test G Post-Emergence Protocol; details: Ipomoea, post-emergence, 312 h, read-out: Morningglory, Ivy-leaved damage rating; for pest or weed control at 15.625 g/ha: 15.625 g ai/ha, evaluated after 13 days (100=total damage to plant; 0=no damage to plant); for pest or weed control at 62.5 g/ha: 62.5 g ai/ha; for pest or weed control at 62.5 g/ha / pest or weed control at 250 g/ha: evaluated after 13 days, 100=total damage to plant, 0=no damage to plant; for pest or weed control at 250 g/ha: 250 g ai/ha
How it was run: as §2

[11] = tested on: redroot pigweed (Amaranthus retroflexus); assay: Test G Post-Emergence Protocol; details: Amaranthus retroflexus, post-emergence, 312 h, read-out: Pigweed, Redroot damage rating; for pest or weed control at 15.625 g/ha: 15.625 g ai/ha, evaluated after 13 days (100=total damage to plant; 0=no damage to plant); for pest or weed control at 62.5 g/ha: 62.5 g ai/ha; for pest or weed control at 62.5 g/ha / pest or weed control at 250 g/ha: evaluated after 13 days, 100=total damage to plant, 0=no damage to plant; for pest or weed control at 250 g/ha: 250 g ai/ha
How it was run: as §2

[12] = tested on: velvetleaf (Abutilon theophrasti); assay: Test G Post-Emergence Protocol; details: Abutilon theophrasti, post-emergence, 312 h, read-out: Velvetleaf damage rating; for pest or weed control at 15.625 g/ha: 15.625 g ai/ha, evaluated after 13 days (100=total damage to plant; 0=no damage to plant); for pest or weed control at 62.5 g/ha: 62.5 g ai/ha; for pest or weed control at 62.5 g/ha / pest or weed control at 250 g/ha: evaluated after 13 days, 100=total damage to plant, 0=no damage to plant; for pest or weed control at 250 g/ha: 250 g ai/ha
How it was run: as §2

Row | Compound | pest or weed control at 15.625 g/ha [1] [%] | pest or weed control at 62.5 g/ha [1] [%] | pest or weed control at 250 g/ha [1] [%] | plant injury at 15.625 g/ha (corn (Zea mays) [2]) [%] | plant injury at 62.5 g/ha (corn (Zea mays) [2]) [%] | plant injury at 250 g/ha (corn (Zea mays) [2]) [%] | pest or weed control at 15.625 g/ha [3] [%] | pest or weed control at 62.5 g/ha [3] [%] | pest or weed control at 250 g/ha [3] [%] | pest or weed control at 15.625 g/ha [4] [%] | pest or weed control at 62.5 g/ha [4] [%] | pest or weed control at 250 g/ha [4] [%] | pest or weed control at 15.625 g/ha [5] [%] | pest or weed control at 62.5 g/ha [5] [%] | pest or weed control at 250 g/ha [5] [%] | pest or weed control at 15.625 g/ha [6] [%] | pest or weed control at 62.5 g/ha [6] [%] | pest or weed control at 250 g/ha [6] [%] | pest or weed control at 15.625 g/ha [7] [%] | pest or weed control at 62.5 g/ha [7] [%] | also measured
1 | C=C(C)c1ccccc1NC(=O)[C@H]1C(=O)N(C)C[C@@H]1c1cccc(C(F)(F)F)c1 (racemic) [Compound 1736] | 0 | 60 | 90 | 0 | 0 | 60 | 80 | 90 | 90 | 0 | 0 | 0 | 0 | 20 | 10 | 0 | 10 | 10 | 0 | 30 | pest or weed control at 250 g/ha [7]: 70%; plant injury at 15.625 g/ha (corn (Zea mays) [8]): 0%; plant injury at 62.5 g/ha (corn (Zea mays) [8]): 0%; plant injury at 250 g/ha (corn (Zea mays) [8]): 70%; pest or weed control at 15.625 g/ha [9]: 30%; pest or weed control at 62.5 g/ha [9]: 80%; pest or weed control at 250 g/ha [9]: 80%; pest or weed control at 15.625 g/ha [10]: 0%; pest or weed control at 62.5 g/ha [10]: 0%; pest or weed control at 250 g/ha [10]: 40%; pest or weed control at 15.625 g/ha [11]: 0%; pest or weed control at 62.5 g/ha [11]: 0%; pest or weed control at 250 g/ha [11]: 0%; pest or weed control at 15.625 g/ha [12]: 0%; pest or weed control at 62.5 g/ha [12]: 0%; pest or weed control at 250 g/ha [12]: 0%
2 | CN1C[C@H](c2cccc(C(F)(F)F)c2)[C@@H](C(=O)Nc2cccc3c2S(=O)(=O)CC3)C1=O (racemic) [Compound 1738] | 0 | 0 | 70 | 0 | 0 | 0 | 0 | 0 | 70 | 0 | 0 | 0 | 0 | 0 | 0 | 0 | 0 | 0 | 0 | 40 | pest or weed control at 250 g/ha [7]: 80%; plant injury at 15.625 g/ha (corn (Zea mays) [8]): 0%; plant injury at 62.5 g/ha (corn (Zea mays) [8]): 0%; plant injury at 250 g/ha (corn (Zea mays) [8]): 0%; pest or weed control at 15.625 g/ha [9]: 20%; pest or weed control at 62.5 g/ha [9]: 40%; pest or weed control at 250 g/ha [9]: 70%; pest or weed control at 15.625 g/ha [10]: 0%; pest or weed control at 62.5 g/ha [10]: 0%; pest or weed control at 250 g/ha [10]: 0%; pest or weed control at 15.625 g/ha [11]: 20%; pest or weed control at 62.5 g/ha [11]: 10%; pest or weed control at 250 g/ha [11]: 10%; pest or weed control at 15.625 g/ha [12]: 0%; pest or weed control at 62.5 g/ha [12]: 10%; pest or weed control at 250 g/ha [12]: 10%
3 | Cc1ccc([C@H]2CN(C)C(=O)[C@@H]2C(=O)Nc2cccc3c2S(=O)(=O)CC3)cc1 (racemic) [Compound 1739] | 0 | 0 | 0 | 0 | 0 | 0 | 0 | 0 | 0 | 0 | 0 | 0 | 0 | 0 | 0 | 0 | 0 | 0 | 0 | 0 | pest or weed control at 250 g/ha [7]: 0%; plant injury at 15.625 g/ha (corn (Zea mays) [8]): 0%; plant injury at 62.5 g/ha (corn (Zea mays) [8]): 0%; plant injury at 250 g/ha (corn (Zea mays) [8]): 0%; pest or weed control at 15.625 g/ha [9]: 0%; pest or weed control at 62.5 g/ha [9]: 0%; pest or weed control at 250 g/ha [9]: 0%; pest or weed control at 15.625 g/ha [10]: 0%; pest or weed control at 62.5 g/ha [10]: 0%; pest or weed control at 250 g/ha [10]: 0%; pest or weed control at 15.625 g/ha [11]: 0%; pest or weed control at 62.5 g/ha [11]: 0%; pest or weed control at 250 g/ha [11]: 0%; pest or weed control at 15.625 g/ha [12]: 0%; pest or weed control at 62.5 g/ha [12]: 0%; pest or weed control at 250 g/ha [12]: 0%
